Measured values reported in the supplement of paper PMC8671470.

Key:
Conditions in all cases: 72 h
SHI-1 [1] = system: SHI-1
How it was run: (§1)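 The IC50 was read from log-logistic dose–response fits. Fifteen myeloid leukaemia lines were exposed for 72 h at 37 °C with 5% CO2 to five tenfold doses from 1 to 10,000 nM in duplicate. ATP luminescence, normalised to vehicle and to a 10 µM positive control, was fitted with four parameters.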

LAMA-84 [2] = system: LAMA-84
How it was run: as §1

BV-173 [3] = system: BV-173
How it was run: as §1

HEL [4] = system: HEL
How it was run: as §1

MV4-11 [5] = system: MV4-11
How it was run: as §1

THP-1 = system: THP-1
How it was run: as §1

HL-60 [6] = system: HL-60
How it was run: as §1

NOMO-1 = system: NOMO-1
How it was run: as §1

KU-812 = system: KU-812
How it was run: as §1

KG-1 [7] = system: KG-1
How it was run: as §1

ML-2 [8] = system: ML-2
How it was run: as §1

MOLM-13 [9] = system: MOLM-13
How it was run: as §1

K-562 [10] = system: K-562
How it was run: as §1

Mono-Mac-6 = system: Mono-Mac-6
How it was run: as §1

KCL-22 [11] = system: KCL-22
How it was run: as §1

HL-60 [12] = test: cell viability (% survival relative to DMSO control); higher = less cytotoxic
How it was run: (§2)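 In 384-well plates, the full library was rescreened in duplicate on HL-60 cells in RPMI 1640 with 10% FBS, at 1–10,000 nM in five tenfold concentrations, for 72 h at 37 °C, 5% CO2. Each run also held DMSO or 100 nM of one of three metabolic inhibitors. Viability was measured by CellTiter-Glo and normalised to DMSO wells and to wells with proteasome inhibitor, present at 10 μM. Any area under the curve comes from four-parameter log-logistic fitting with drc and PharmacoGx.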

SHI-1 [13] = test: cell viability (% survival relative to DMSO control, bortezomib = 0%); higher = less cytotoxic
How it was run: (§3)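 In 384-well plates pre-printed with compounds at 1, 10, 100, 1000 or 10000 nM, duplicate wells received cells from 10 AML and 5 CML lines at densities within the linear growth range. The plates stayed at 37 °C with 5% CO2 for 72 h before CellTiter-Glo luminescence was recorded. Each entry is averaged percent survival. Scaling placed vehicle at 100% and a 10 µM positive control at 0%.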

LAMA-84 [14] = test: as above
How it was run: as §3

BV-173 [15] = test: as above
How it was run: as §3

HEL [16] = test: as above
How it was run: as §3

MV4-11 [17] = test: as above
How it was run: as §3

HL-60 [18] = test: as above
How it was run: as §3

KG-1 [19] = test: as above
How it was run: as §3

ML-2 [20] = test: as above
How it was run: as §3

MOLM-13 [21] = test: as above
How it was run: as §3

K-562 [22] = test: as above
How it was run: as §3

KCL-22 [23] = test: as above
How it was run: as §3

HL-60 [24] = test: area under dose-response curve (viability, 1 nM-10 uM) (fraction (0-1)); higher = more sensitive
How it was run: as §2

OC[C@H]1OC(O)C[C@@H](O)[C@@H]1O (some centres not stated) [2-deoxyglucose]
Conditions	IC50 (cell viability) [µM]
BV-173 [3]	> 10
HEL [4]	> 10
HL-60 [6]	> 10
K-562 [10]	> 10
KCL-22 [11]	> 10
KG-1 [7]	> 10
KU-812	> 10
LAMA-84 [2]	> 10
ML-2 [8]	> 10
MOLM-13 [9]	> 10
MV4-11 [5]	> 10
Mono-Mac-6	> 10
NOMO-1	> 10
SHI-1 [1]	> 10
THP-1	> 10

cell viability [%], HL-60 [12]
Conditions	0.001 µM	0.01 µM	0.1 µM	1 µM	10 µM
co-treatment: AZD3965 100 nM	107	110	103	103.1	103
co-treatment: DMSO vehicle	104	101	99.45	103.5	97.27
co-treatment: GSK2194069 100 nM	102	107	102	101	104
co-treatment: pictilisib 100 nM	102	109.7	99.6	104	108

Conditions	area under dose-response curve, co-treatment: AZD3965 100 nM	area under dose-response curve, co-treatment: DMSO vehicle	area under dose-response curve, co-treatment: GSK2194069 100 nM	area under dose-response curve, co-treatment: pictilisib 100 nM	cell viability, 1 nM [%]	cell viability, 10 nM [%]	cell viability, 100 nM [%]	cell viability, 1000 nM [%]	cell viability, 10000 nM [%]
BV-173 [15]	–	–	–	–	126	107	109	90.4	106
HEL [16]	–	–	–	–	123	113	112	93.3	95.1
HL-60 [18]	–	–	–	–	82.5	92	106	102	94.7
HL-60 [24]	< 0.0301	< 0.0301	< 0.0301	< 0.0301	–	–	–	–	–
K-562 [22]	–	–	–	–	107	117	94.2	101	99.6
KCL-22 [23]	–	–	–	–	110	107	107	90.6	104
KG-1 [19]	–	–	–	–	111	95.2	98.9	82.6	92.9
LAMA-84 [14]	–	–	–	–	107	114	95.6	86.3	96.8
ML-2 [20]	–	–	–	–	101	110	102	89.4	96.1
MOLM-13 [21]	–	–	–	–	86.7	108	93	90.1	86.4
MV4-11 [17]	–	–	–	–	102	91.4	100	92	110
SHI-1 [13]	–	–	–	–	112	105	105	93.4	98.3

O=C(C(=O)c1ccc(Br)cc1)c1ccc(Br)cc1 [4,4'-Dibromobenzil]
Conditions	IC50 (cell viability) [µM]
BV-173 [3]	> 10
HEL [4]	> 10
HL-60 [6]	> 10
K-562 [10]	> 10
KCL-22 [11]	> 10
KG-1 [7]	> 10
KU-812	> 10
LAMA-84 [2]	> 10
ML-2 [8]	> 10
MOLM-13 [9]	> 10
MV4-11 [5]	> 10
Mono-Mac-6	> 10
NOMO-1	> 10
SHI-1 [1]	> 10
THP-1	> 10

cell viability [%], HL-60 [12]
Conditions	0.001 µM	0.01 µM	0.1 µM	1 µM	10 µM
co-treatment: AZD3965 100 nM	105	105	99.5	94.7	102
co-treatment: DMSO vehicle	102	100	99.8	96.7	101
co-treatment: GSK2194069 100 nM	105	107.3	105.4	98.1	96.28
co-treatment: pictilisib 100 nM	109	105	95.5	98.3	101.7

Conditions	area under dose-response curve, co-treatment: AZD3965 100 nM	area under dose-response curve, co-treatment: DMSO vehicle	area under dose-response curve, co-treatment: GSK2194069 100 nM	area under dose-response curve, co-treatment: pictilisib 100 nM	cell viability, 1 nM [%]	cell viability, 10 nM [%]	cell viability, 100 nM [%]	cell viability, 1000 nM [%]	cell viability, 10000 nM [%]
BV-173 [15]	–	–	–	–	104	117	112	105	117
HEL [16]	–	–	–	–	96.7	96.8	120	114	115
HL-60 [18]	–	–	–	–	91.8	99.6	93.4	98.1	88.5
HL-60 [24]	< 0.0301	< 0.0301	< 0.0301	< 0.0301	–	–	–	–	–
K-562 [22]	–	–	–	–	101	90.3	114	100	112
KCL-22 [23]	–	–	–	–	95.4	87.2	94.9	101	95.5
KG-1 [19]	–	–	–	–	95.5	98.6	101	100	91
LAMA-84 [14]	–	–	–	–	98.8	101	109	106	96.9
ML-2 [20]	–	–	–	–	91.7	99.9	92.3	100	107
MOLM-13 [21]	–	–	–	–	87	83.8	80.4	87.5	93.8
MV4-11 [17]	–	–	–	–	101	92.1	107	85.3	89.3
SHI-1 [13]	–	–	–	–	92.4	101	90	103	98.4

NS(=O)(=O)c1ccc(NC(=O)Cc2ccccc2)cc1 [4-(2-Phenylacetamido)Benzenesulfonamide]
Conditions	IC50 (cell viability) [µM]
BV-173 [3]	> 10
HEL [4]	> 10
HL-60 [6]	> 10
K-562 [10]	> 10
KCL-22 [11]	> 10
KG-1 [7]	> 10
KU-812	> 10
LAMA-84 [2]	> 10
ML-2 [8]	> 10
MOLM-13 [9]	> 10
MV4-11 [5]	> 10
Mono-Mac-6	> 10
NOMO-1	> 10
SHI-1 [1]	> 10
THP-1	> 10

cell viability [%], HL-60 [12]
Conditions	0.001 µM	0.01 µM	0.1 µM	1 µM	10 µM
co-treatment: AZD3965 100 nM	97.2	100	99.29	101	99.6
co-treatment: DMSO vehicle	92.5	94.4	100	100	98.28
co-treatment: GSK2194069 100 nM	104	99.5	99.14	99.4	103
co-treatment: pictilisib 100 nM	101	85.2	94	97.6	92.9

Conditions	area under dose-response curve, co-treatment: AZD3965 100 nM	area under dose-response curve, co-treatment: DMSO vehicle	area under dose-response curve, co-treatment: GSK2194069 100 nM	area under dose-response curve, co-treatment: pictilisib 100 nM	cell viability, 1 nM [%]	cell viability, 10 nM [%]	cell viability, 100 nM [%]	cell viability, 1000 nM [%]	cell viability, 10000 nM [%]
BV-173 [15]	–	–	–	–	118	94.8	105	114	92.9
HEL [16]	–	–	–	–	106	108	78.6	99	106
HL-60 [18]	–	–	–	–	162	97.6	115	106	89.7
HL-60 [24]	< 0.0301	< 0.0301	< 0.0301	< 0.0301	–	–	–	–	–
K-562 [22]	–	–	–	–	100	99.4	103	112	97.2
KCL-22 [23]	–	–	–	–	99.8	102	83.9	108	93.9
KG-1 [19]	–	–	–	–	99	106	85.8	90	103
LAMA-84 [14]	–	–	–	–	97.4	104	110	97.4	102
ML-2 [20]	–	–	–	–	98.7	102	95.6	108	102
MOLM-13 [21]	–	–	–	–	95.7	99.9	81	84.6	81.3
MV4-11 [17]	–	–	–	–	108	109	95.7	91.3	86.6
SHI-1 [13]	–	–	–	–	106	105	91.2	102	102
